Read-outs that look alike come from different tables or passages of the source.
Legend:
in vitro [1] = experiment: in vitro
CHIKV = experiment: Antiviral activity against CHIKV; format: cell-based; details: Chikungunya virus
in vitro [2] = details: human
EBOV (VP30, Huh) = experiment: microbe, parasite or virus in culture; format: cell-based, Ebola Virus; details: for EC50: read-out: EC50, EBOV (VP30, Huh)
SARS-CoV-2 (Omicron) = experiment: microbe, parasite or virus in culture; format: cell-based; details: Severe acute respiratory syndrome coronavirus 2, Calu-3, read-out: IC50, SARS-CoV-2 (Omicron) (Calu3) #1
DENV2 = experiment: Antiviral activity against DENV2; format: cell-based; details: Dengue Virus 2
DENV4 = experiment: Antiviral activity against DENV4; format: cell-based; details: Dengue Virus 4
[3] = Cytotoxicity (CC50) alongside DENV2 assay
[4] = Cytotoxicity (CC50) alongside SARS-CoV-2 WA-1 assay, lab #2; details: human, A549 cells
SARS-CoV-2 (WA-1) [5] = experiment: microbe, parasite or virus in culture; format: cell-based; details: Severe acute respiratory syndrome coronavirus 2, A549, read-out: IC50, SARS-CoV-2 (WA-1) #1
[6] = Cytotoxicity (CC50) alongside SARS-CoV-2 WA-1 assay, lab #1; details: human, A549 cells
SARS-CoV-2 (WA-1) [7] = experiment: microbe, parasite or virus in culture; format: cell-based; details: Severe acute respiratory syndrome coronavirus 2, A549, read-out: IC50, SARS-CoV-2 (WA-1) #2
[8] = Cytotoxicity (CC50) alongside DENV4 assay
in vitro [9] = experiment: in vitro; remark: listed apart in the source
[10] = Cytotoxicity (CC50) alongside SARS-CoV-2 (A549-hACE2) assay; details: human, A549-hACE2 cells
SARS-CoV-2 (A549-hACE2) = experiment: microbe, parasite or virus in culture; format: cell-based
VEEV = experiment: microbe, parasite or virus in culture; format: cell-based; details: Venezuelan equine encephalitis virus, read-out: EC50, VEEV
OC43 = experiment: Antiviral activity against OC43 (Huh 7.5 IFITM3); format: cell-based, human coronavirus; details: Betacoronavirus 1, OC43, Huh7.5
[11] = Zaire ebolavirus, Huh-7, read-out: IC50, EBOV (VP30, Huh)

Row | Compound | CC50 (in vitro [2]) | IC50 (EBOV (VP30, Huh); [11]) | EC50 (EBOV (VP30, Huh); Zaire ebolavirus) | IC50 (SARS-CoV-2 (Omicron)) | IC50 (DENV2) | IC50 (DENV4) | IC50 (SARS-CoV-2 (WA-1) [7]) | other results
1 | CC(C)OC(=O)[C@H](C)N[P@](=O)(OC[C@H]1O[C@@H](n2cnc3sc4c(=O)[nH]cnc4c32)C(O)C1O)Oc1ccccc1 (stereo in doubt) [CEM-010] | – | – | – | – | – | – | – | CC50 (in vitro [1]): > 100 µM; IC50 (CHIKV): 82.5 µM
2 | CC1(F)C(O)[C@@H](CO)O[C@H]1n1cnc2sc3c(N)nc(N)nc3c21 (stereo in doubt) [CEM-024, 2′-deoxy-2′-fluoro-2′-C-methyl-1′-[(5,7-diaminoimidazo-[4′,5′:4,5]thieno[3,2-d]pyrimidin-3-yl)]-β-D-ribofuranose] | 11 µM | 31 µM | – | – | – | – | – | –
3 | Nc1nc(N)c2sc3ncn([C@@H]4O[C@H](CO)C(O)C4O)c3c2n1 (stereo partly drawn) [CEM-007, 1-[(5,7-diaminoimidazo-[4′,5′:4,5]thieno[3,2-d]pyrimidin-3-yl)]-β-D-ribofuranose-2,3,5-Triol] | > 100 µM | 15.2 µM | 40.5 µM | 56.4 µM | 45 µM | 64 µM | – | IC50 (EBOV (VP30, Huh); read-out: IC50, EBOV (VP30, Huh)): 11.7 µM
4 | CC(C)OC(=O)[C@H](C)N[P@](=O)(OC[C@H]1O[C@@H](n2cnc3sc4c(N)ncnc4c32)C(O)C1O)Oc1ccccc1 (stereo partly shown) [CEM-012] | 17.7 µM | 49.3 µM | – | – | – | – | – | –
5 | CC(C)OC(=O)[C@H](C)N[P@](=O)(OC[C@H]1O[C@@H](n2cnc3sc(C(N)=O)c(N)c32)C(O)C1O)Oc1ccccc1 (stereo partly shown) [CEM-015] | – | – | – | – | – | – | – | IC50 (CHIKV): 93.9 µM
6 | Nc1nc2c(sc3ncn([C@@H]4O[C@H](CO)C(O)C4O)c32)c(=O)[nH]1 (stereo partly drawn) [CEM-021, 1-[(5-Aminoimidazo[4′,5′:4,5]thieno[3,2-d]pyrimidin-3-yl-7-one)]-β-D-ribofuranose 2,3,5-Triol] | 60.5 µM | 43.6 µM | – | – | 73.5 µM | 100 µM | – | CC50 [3]: > 100 µM
7 | COc1nc(OC)c2sc3ncn([C@@H]4O[C@H](CO)C(O)C4O)c3c2n1 (stereo partly drawn) [CEM-028, 1-[(5,7-dimethoxyimidazo-[4′,5′:4,5]thieno[3,2-d]pyrimidin-3-yl)]-β-D-ribofuranose-2,3,5-Triol] | 138 µM | 48 µM | – | – | – | – | – | –
8 | COc1nc(OC)c2sc3ncn([C@@H]4O[C@H](CO[P@@](=O)(N[C@@H](C)C(=O)OC(C)C)Oc5ccccc5)C(O)C4O)c3c2n1 (stereo partly shown) [CEM-036] | – | 37.7 µM | – | > 100 µM | 24 µM | 34 µM | 48.4 µM | CC50 [4]: > 100 µM; CC50 [3]: > 100 µM; IC50 (SARS-CoV-2 (WA-1) [5]): 21.6 µM; CC50 [6]: > 100 µM
9 | CC(C)OC(=O)[C@H](C)N[P@@](=O)(Oc1ccccc1)OC1[C@@H](CO[P@@](=O)(N[C@@H](C)C(=O)OC(C)C)Oc2ccccc2)O[C@@H](n2cnc3sc4c(N)nc(N)nc4c32)C1(C)F (stereo partly shown) [CEM-042] | – | 11.6 µM | – | 7.36 µM | 3.5 µM | 7.5 µM | 5.89 µM | CC50 (in vitro [1]): > 100 µM; CC50 [8]: > 100 µM; CC50 [4]: > 100 µM; CC50 [3]: > 100 µM; CC50 (in vitro [9]): > 100 µM; IC50 (SARS-CoV-2 (WA-1) [5]): 3.58 µM; CC50 [10]: > 100 µM; EC50 (CHIKV): 24.6 µM; CC50 [6]: > 100 µM; EC50 (SARS-CoV-2 (A549-hACE2); Severe acute respiratory syndrome coronavirus 2, read-out: EC50, SARS-CoV-2 (A549-hACE2)): 5.89 µM; EC90 (SARS-CoV-2 (A549-hACE2); Severe acute respiratory syndrome coronavirus 2, read-out: EC90, SARS-CoV-2 (A549-hACE2)): 6.5 µM; EC50 (VEEV): 86.7 µM; IC90 (DENV2): 6.8 µM; EC50 (OC43): 1.5 µM; IC90 (DENV4): 25 µM
10 | CCC(CC)COC(=O)[C@H](C)N[P@](=O)(OC[C@H]1O[C@@H](n2cnc3sc4c(N)nc(N)nc4c32)C(C)(F)C1O)Oc1ccccc1 (stereo partly shown) [CEM-052] | – | – | 9.1 µM | 20.6 µM | 19 µM | 16 µM | – | CC50 [8]: 33 µM; EC50 (EBOV (VP30, Huh)): 11.4 µM
11 | CCC(CC)COC(=O)[C@H](C)N[P@@](=O)(Oc1ccccc1)OC1[C@@H](CO[P@@](=O)(N[C@@H](C)C(=O)OCC(CC)CC)Oc2ccccc2)O[C@@H](n2cnc3sc4c(N)nc(N)nc4c32)C1(C)F (stereo partly shown) [CEM-053] | – | – | 4.5 µM | 21.9 µM | 18 µM | 2.9 µM | 2.95 µM | CC50 [8]: > 50 µM; EC50 (EBOV (VP30, Huh)): 6.7 µM
12 | CC(C)OC(=O)[C@H](C)N[P@](=O)(OC[C@H]1O[C@@H](n2cnc3sc4c(N)nc(N)nc4c32)C(C)(F)C1OC(=O)C(C)C)Oc1ccccc1 (stereo partly shown) [CEM-054] | – | – | 10.8 µM | 37.9 µM | 22 µM | 10 µM | – | CC50 [8]: 32 µM; EC50 (EBOV (VP30, Huh)): 11.2 µM
13 | CCC(CC)COC(=O)[C@H](C)N[P@](=O)(OC[C@H]1O[C@@H](n2cnc3sc4c(N)nc(N)nc4c32)[C@](C)(F)C1OC(=O)C(C)C)Oc1ccccc1 (stereo partly shown) [CEM-055] | – | – | 6.2 µM | 19.6 µM | – | – | 11.9 µM | EC50 (EBOV (VP30, Huh)): 10.1 µM
14 | CCC(CC)COC(=O)[C@H](C)N[P@](=O)(OC[C@H]1O[C@@H](n2cnc3sc4c(N)nc(N)nc4c32)C(O)C1O)Oc1ccccc1 (stereo partly shown) [CEM-056] | – | – | 22.1 µM | 59.3 µM | – | – | 44.7 µM | –

— US20260184738A1 (priority 2023, published 2026)
